{
  "source": "patent US10710978B2",
  "about": "“STK4 inhibitors for treatment of hematologic malignancies” (Dana-Farber Cancer Institute, Inc., priority 2015, dated 2020)",
  "key": {"[1]": {"molecular_target": "STK3 (MST2) (Homo sapiens (Human), UniProt Q13188)", "sequence (Q13188 whole entry)": "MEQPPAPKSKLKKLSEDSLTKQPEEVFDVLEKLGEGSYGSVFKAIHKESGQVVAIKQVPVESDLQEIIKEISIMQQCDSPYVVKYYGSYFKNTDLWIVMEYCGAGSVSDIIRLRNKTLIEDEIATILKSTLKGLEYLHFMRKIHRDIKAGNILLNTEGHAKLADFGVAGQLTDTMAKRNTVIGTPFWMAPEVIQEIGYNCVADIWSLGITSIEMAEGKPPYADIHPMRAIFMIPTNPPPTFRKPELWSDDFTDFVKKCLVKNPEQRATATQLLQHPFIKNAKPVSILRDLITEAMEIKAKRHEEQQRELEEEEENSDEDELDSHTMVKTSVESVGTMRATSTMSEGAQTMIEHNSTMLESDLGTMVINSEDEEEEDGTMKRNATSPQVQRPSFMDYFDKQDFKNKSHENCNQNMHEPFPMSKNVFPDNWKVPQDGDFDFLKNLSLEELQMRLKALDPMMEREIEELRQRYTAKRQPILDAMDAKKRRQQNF", "assay": "Z-lyte biochemical IC50 assay (Invitrogen)", "details": "ATP concentration matched the Km"}, "[2]": {"molecular_target": "SLK (Homo sapiens (Human), UniProt Q9H2G2)", "assay": "KiNativ assay", "format": "binding", "details": "H929 live cell", "protocol": "(§1) Biochemical IC50s of the compounds of the present disclosure against various kinases were measured in a KiNativ assay. Compounds were screened in duplicate at 10 μM in H929 live cell. IC50 was measured via Mass spectroscopy (MS)."}, "[3]": {"molecular_target": "LKB1 (Homo sapiens (Human), UniProt Q15831)", "assay": "KiNativ assay", "format": "binding", "details": "H929 live cell", "protocol": "as §1"}, "[4]": {"system": "PI4KA, PI4KAP2", "assay": "KiNativ assay", "format": "binding", "details": "H929 live cell", "protocol": "as §1"}, "[5]": {"system": "MAP3K2, MAP3K3", "assay": "KiNativ assay", "format": "binding", "details": "H929 live cell", "protocol": "as §1"}, "[6]": {"molecular_target": "PKR (Homo sapiens (Human), UniProt P19525)", "sequence (P19525 whole entry)": "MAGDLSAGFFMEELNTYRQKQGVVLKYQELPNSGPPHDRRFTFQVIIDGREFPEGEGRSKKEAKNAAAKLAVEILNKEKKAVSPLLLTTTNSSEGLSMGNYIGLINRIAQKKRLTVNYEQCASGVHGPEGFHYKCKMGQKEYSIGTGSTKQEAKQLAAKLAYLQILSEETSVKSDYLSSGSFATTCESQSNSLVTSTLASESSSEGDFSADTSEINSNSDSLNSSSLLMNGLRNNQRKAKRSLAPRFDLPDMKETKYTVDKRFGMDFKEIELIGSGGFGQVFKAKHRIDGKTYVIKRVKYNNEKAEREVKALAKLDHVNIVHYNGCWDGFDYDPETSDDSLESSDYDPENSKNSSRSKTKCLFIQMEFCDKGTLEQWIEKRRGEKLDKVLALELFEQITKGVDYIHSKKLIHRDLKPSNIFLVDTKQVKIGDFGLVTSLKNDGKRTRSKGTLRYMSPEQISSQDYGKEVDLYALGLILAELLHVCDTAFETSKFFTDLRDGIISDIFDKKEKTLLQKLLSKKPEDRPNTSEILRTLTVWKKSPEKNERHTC", "assay": "KiNativ assay", "format": "binding", "details": "H929 live cell", "protocol": "as §1"}, "[7]": {"molecular_target": "STLK3 (Homo sapiens (Human), UniProt Q9UEW8)", "assay": "KiNativ assay", "format": "binding", "details": "H929 live cell", "protocol": "as §1"}, "[8]": {"molecular_target": "MAP2K5 (Homo sapiens (Human), UniProt Q13163)", "sequence (Q13163 whole entry)": "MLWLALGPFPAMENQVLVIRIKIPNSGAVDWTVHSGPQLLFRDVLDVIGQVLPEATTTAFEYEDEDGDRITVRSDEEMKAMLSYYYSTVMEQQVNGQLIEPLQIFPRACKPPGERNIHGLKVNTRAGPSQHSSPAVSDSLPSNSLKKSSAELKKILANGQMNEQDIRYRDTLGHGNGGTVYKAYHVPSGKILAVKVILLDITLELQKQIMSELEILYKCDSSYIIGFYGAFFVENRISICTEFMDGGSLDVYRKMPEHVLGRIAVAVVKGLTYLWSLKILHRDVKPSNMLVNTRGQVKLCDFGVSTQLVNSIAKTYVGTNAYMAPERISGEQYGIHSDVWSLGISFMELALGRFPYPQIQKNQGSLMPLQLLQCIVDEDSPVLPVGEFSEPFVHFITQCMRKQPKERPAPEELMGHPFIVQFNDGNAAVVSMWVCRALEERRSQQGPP", "assay": "KiNativ assay", "format": "binding", "details": "H929 live cell", "protocol": "as §1"}, "[9]": {"molecular_target": "BRAF (Homo sapiens (Human), UniProt P15056)", "assay": "KiNativ assay", "format": "binding", "details": "H929 live cell", "protocol": "as §1"}, "[10]": {"molecular_target": "ULK1 (Homo sapiens (Human), UniProt O75385)", "assay": "KiNativ assay", "format": "binding", "details": "H929 live cell", "protocol": "as §1"}, "[11]": {"molecular_target": "CDC2 (Homo sapiens (Human), UniProt P06493)", "sequence (P06493 whole entry)": "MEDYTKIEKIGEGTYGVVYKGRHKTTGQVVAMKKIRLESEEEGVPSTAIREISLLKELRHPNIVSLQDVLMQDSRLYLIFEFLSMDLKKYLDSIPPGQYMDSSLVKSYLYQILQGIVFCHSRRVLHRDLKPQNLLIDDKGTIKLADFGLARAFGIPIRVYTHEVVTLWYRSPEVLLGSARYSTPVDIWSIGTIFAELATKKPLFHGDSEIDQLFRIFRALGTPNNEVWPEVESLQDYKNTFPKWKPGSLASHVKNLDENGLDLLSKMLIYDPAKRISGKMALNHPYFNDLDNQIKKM", "assay": "KiNativ assay", "format": "binding", "details": "H929 live cell", "protocol": "as §1"}, "[12]": {"molecular_target": "MSK1 domain1 (Homo sapiens (Human), UniProt O75582)", "assay": "KiNativ assay", "format": "binding", "details": "H929 live cell", "protocol": "as §1"}, "[13]": {"molecular_target": "JAK3 domain2 (Homo sapiens (Human), UniProt P52333)", "sequence (P52333 whole entry, the tested form may be a part)": "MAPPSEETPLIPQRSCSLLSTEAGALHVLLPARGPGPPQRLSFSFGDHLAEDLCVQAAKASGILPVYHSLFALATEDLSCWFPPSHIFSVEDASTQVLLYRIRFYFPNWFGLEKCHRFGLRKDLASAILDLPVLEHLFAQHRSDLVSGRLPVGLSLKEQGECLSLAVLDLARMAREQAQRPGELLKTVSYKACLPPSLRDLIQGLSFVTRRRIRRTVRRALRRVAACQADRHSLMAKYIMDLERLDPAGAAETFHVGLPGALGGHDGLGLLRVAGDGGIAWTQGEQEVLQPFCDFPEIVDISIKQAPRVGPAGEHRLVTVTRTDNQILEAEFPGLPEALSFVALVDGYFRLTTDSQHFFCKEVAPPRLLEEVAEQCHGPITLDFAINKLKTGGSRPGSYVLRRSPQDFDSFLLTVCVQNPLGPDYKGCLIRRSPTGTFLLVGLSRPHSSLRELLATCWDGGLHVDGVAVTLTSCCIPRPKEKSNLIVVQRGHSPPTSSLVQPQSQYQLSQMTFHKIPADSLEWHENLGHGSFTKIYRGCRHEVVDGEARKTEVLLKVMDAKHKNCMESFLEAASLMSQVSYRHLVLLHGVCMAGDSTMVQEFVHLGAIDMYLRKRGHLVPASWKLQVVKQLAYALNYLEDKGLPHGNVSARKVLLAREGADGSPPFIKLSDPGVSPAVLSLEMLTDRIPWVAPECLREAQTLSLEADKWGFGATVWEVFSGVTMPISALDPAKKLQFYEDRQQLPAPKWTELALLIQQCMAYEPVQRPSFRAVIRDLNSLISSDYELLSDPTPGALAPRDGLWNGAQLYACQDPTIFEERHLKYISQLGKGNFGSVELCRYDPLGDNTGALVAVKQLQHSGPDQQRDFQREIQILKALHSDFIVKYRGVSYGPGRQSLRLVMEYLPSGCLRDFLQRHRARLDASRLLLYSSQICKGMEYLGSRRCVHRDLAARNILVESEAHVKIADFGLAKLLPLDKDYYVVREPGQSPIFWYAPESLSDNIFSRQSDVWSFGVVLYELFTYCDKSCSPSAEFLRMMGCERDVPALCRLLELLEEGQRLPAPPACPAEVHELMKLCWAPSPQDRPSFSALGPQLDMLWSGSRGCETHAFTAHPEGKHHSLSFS", "assay": "KiNativ assay", "format": "binding", "details": "H929 live cell", "protocol": "as §1"}, "[14]": {"molecular_target": "MAP2K4 (Homo sapiens (Human), UniProt P45985)", "assay": "KiNativ assay", "format": "binding", "details": "H929 live cell", "protocol": "as §1"}, "[15]": {"molecular_target": "SRPK1 (Homo sapiens (Human), UniProt Q96SB4)", "sequence (Q96SB4 whole entry)": "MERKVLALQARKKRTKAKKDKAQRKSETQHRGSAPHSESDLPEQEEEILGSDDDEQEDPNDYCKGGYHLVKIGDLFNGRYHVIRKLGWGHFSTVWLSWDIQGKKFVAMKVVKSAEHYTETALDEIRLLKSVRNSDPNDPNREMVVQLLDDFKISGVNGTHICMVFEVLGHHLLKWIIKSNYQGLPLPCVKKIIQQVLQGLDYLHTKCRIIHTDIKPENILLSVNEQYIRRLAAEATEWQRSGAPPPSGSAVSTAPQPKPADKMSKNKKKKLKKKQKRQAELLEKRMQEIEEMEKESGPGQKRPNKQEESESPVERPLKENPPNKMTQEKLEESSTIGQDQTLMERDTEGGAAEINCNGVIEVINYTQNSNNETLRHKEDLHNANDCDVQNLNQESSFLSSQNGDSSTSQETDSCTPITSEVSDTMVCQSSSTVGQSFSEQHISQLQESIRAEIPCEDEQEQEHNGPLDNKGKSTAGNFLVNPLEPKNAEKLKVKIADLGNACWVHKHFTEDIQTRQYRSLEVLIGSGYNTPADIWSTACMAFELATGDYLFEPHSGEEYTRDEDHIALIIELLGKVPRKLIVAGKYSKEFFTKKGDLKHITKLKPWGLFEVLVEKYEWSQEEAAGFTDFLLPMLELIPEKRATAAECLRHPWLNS", "assay": "KiNativ assay", "format": "binding", "details": "H929 live cell", "protocol": "as §1"}, "[16]": {"molecular_target": "ZAK (Homo sapiens (Human), UniProt Q9NYL2)", "assay": "KiNativ assay", "format": "binding", "details": "H929 live cell", "protocol": "as §1"}, "[17]": {"molecular_target": "CaMK2g (Homo sapiens (Human), UniProt Q13555)", "assay": "KiNativ assay", "format": "binding", "details": "H929 live cell", "protocol": "as §1"}, "[18]": {"molecular_target": "MARK4 (Homo sapiens (Human), UniProt Q96L34)", "assay": "KiNativ assay", "format": "binding", "details": "H929 live cell", "protocol": "as §1"}, "[19]": {"molecular_target": "MAP3K5 (Homo sapiens (Human), UniProt Q99683)", "assay": "KiNativ assay", "format": "binding", "details": "H929 live cell", "protocol": "as §1"}, "[20]": {"molecular_target": "PKN1 (Homo sapiens (Human), UniProt Q16512)", "sequence (Q16512 whole entry)": "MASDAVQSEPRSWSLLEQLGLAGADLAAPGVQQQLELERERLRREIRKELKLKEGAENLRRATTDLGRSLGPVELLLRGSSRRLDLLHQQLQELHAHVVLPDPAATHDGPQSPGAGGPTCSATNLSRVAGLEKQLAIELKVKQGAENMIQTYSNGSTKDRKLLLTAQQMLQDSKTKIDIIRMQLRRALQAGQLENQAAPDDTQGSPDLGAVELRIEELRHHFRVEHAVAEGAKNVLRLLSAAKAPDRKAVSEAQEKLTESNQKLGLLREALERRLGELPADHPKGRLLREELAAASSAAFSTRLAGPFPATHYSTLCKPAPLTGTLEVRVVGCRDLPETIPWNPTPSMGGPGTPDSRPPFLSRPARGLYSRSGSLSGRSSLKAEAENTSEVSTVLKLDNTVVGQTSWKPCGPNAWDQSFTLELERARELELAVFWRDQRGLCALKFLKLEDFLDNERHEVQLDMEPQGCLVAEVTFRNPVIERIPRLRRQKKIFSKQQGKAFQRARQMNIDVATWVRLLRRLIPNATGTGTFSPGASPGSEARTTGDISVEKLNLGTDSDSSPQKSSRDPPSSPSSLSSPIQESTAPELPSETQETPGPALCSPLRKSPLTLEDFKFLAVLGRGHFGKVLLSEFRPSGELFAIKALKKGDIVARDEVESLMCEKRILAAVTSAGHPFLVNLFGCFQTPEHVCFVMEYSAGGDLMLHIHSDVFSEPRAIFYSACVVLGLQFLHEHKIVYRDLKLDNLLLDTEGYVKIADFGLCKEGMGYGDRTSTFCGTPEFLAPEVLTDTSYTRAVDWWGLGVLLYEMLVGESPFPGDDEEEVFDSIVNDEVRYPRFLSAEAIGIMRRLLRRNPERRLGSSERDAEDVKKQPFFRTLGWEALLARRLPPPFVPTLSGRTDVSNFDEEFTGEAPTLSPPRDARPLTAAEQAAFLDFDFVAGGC", "assay": "KiNativ assay", "format": "binding", "details": "H929 live cell", "protocol": "as §1"}, "[21]": {"molecular_target": "FER (Homo sapiens (Human), UniProt P16591)", "assay": "KiNativ assay", "format": "binding", "details": "H929 live cell", "protocol": "as §1"}, "[22]": {"system": "MST4, YSK1", "assay": "KiNativ assay", "format": "binding", "details": "H929 live cell", "protocol": "as §1"}, "[23]": {"molecular_target": "MLKL (Homo sapiens (Human), UniProt Q8NB16)", "sequence (Q8NB16 whole entry)": "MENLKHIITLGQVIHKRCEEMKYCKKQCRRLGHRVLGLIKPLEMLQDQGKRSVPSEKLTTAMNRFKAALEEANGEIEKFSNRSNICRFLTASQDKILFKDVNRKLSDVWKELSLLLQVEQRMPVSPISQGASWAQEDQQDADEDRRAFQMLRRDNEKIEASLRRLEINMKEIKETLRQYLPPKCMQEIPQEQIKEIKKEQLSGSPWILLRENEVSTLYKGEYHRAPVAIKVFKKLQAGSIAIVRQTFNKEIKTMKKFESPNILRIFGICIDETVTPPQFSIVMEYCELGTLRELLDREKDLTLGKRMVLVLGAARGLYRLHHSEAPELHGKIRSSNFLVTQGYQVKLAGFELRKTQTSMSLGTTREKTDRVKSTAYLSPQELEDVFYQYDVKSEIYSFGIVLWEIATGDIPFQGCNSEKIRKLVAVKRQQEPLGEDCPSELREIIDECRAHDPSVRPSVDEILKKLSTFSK", "assay": "KiNativ assay", "format": "binding", "details": "H929 live cell", "protocol": "as §1"}, "[24]": {"system": "NEK6, NEK7", "assay": "KiNativ assay", "format": "binding", "details": "H929 live cell", "protocol": "as §1"}},
  "note": "Like-named read-outs stand apart in the source and are kept apart here.",
  "data": [
    {"molecule": "Nc1ncc(-c2cc([N+](=O)[O-])ccc2F)cc1-c1ccc2c(c1)CCNC2=O", "note": "[Compound I-1, 6-(2-amino-5-(2-fluoro-5-nitrophenyl)pyridin-3-yl)-3,4-dihydroisoquinolin-1(2H)-one]", "values": [
      {"measurement": "IC50", "setting": "[1]", "value": "0.04 to 0.2", "unit": "µM"}
    ]},
    {"molecule": "Nc1ncc(-c2cccc([N+](=O)[O-])c2F)cc1-c1ccc2c(c1)CCNC2=O", "note": "[Compound I-9, 6-(2-amino-5-(2-fluoro-3-nitrophenyl)pyridin-3-yl)-3,4-dihydroisoquinolin-1(2H)-one]", "values": [
      {"measurement": "IC50", "setting": "[1]", "value": "< 0.04", "unit": "µM"},
      {"measurement": "inhibition at 10 µM", "setting": "[2]; read-out: % inhibition (range)", "value": "> 90", "unit": "%"},
      {"measurement": "inhibition at 10 µM", "setting": "[2]; read-out: inhibition (10 μM)", "value": 95.3, "unit": "%"},
      {"measurement": "inhibition at 10 µM", "setting": "[3]; read-out: % inhibition (range)", "value": 0, "unit": "%"},
      {"measurement": "inhibition at 10 µM", "setting": "[3]; read-out: inhibition (10 μM)", "value": 4.5, "unit": "%"},
      {"measurement": "% inhibition (range)", "setting": "[4]; 10 μM", "value": 0.0, "unit": "%"},
      {"measurement": "inhibition (10 μM)", "setting": "[4]", "value": "−5.5", "unit": "%"},
      {"measurement": "% inhibition (range)", "setting": "[5]; 10 μM", "value": "35-50%"},
      {"measurement": "inhibition (10 μM)", "setting": "[5]", "value": 43.2, "unit": "%"},
      {"measurement": "inhibition at 10 µM", "setting": "[6]; read-out: % inhibition (range)", "value": 0, "unit": "%"},
      {"measurement": "inhibition at 10 µM", "setting": "[6]; read-out: inhibition (10 μM)", "value": -36.7, "unit": "%"},
      {"measurement": "inhibition at 10 µM", "setting": "[7]; read-out: % inhibition (range)", "value": 0, "unit": "%"},
      {"measurement": "inhibition at 10 µM", "setting": "[7]; read-out: inhibition (10 μM)", "value": -22.9, "unit": "%"},
      {"measurement": "inhibition at 10 µM", "setting": "[8]; read-out: % inhibition (range)", "value": "75 to 90", "unit": "%"},
      {"measurement": "inhibition at 10 µM", "setting": "[8]; read-out: inhibition (10 μM)", "value": 75.2, "unit": "%"},
      {"measurement": "inhibition at 10 µM", "setting": "[9]; read-out: % inhibition (range)", "value": 0, "unit": "%"},
      {"measurement": "inhibition at 10 µM", "setting": "[9]; read-out: inhibition (10 μM)", "value": 3.3, "unit": "%"},
      {"measurement": "inhibition at 10 µM", "setting": "[10]; read-out: % inhibition (range)", "value": 0, "unit": "%"},
      {"measurement": "inhibition at 10 µM", "setting": "[10]; read-out: inhibition (10 μM)", "value": -19.6, "unit": "%"},
      {"measurement": "inhibition at 10 µM", "setting": "[11]; read-out: % inhibition (range)", "value": 0, "unit": "%"},
      {"measurement": "inhibition at 10 µM", "setting": "[11]; read-out: inhibition (10 μM)", "value": -24.7, "unit": "%"},
      {"measurement": "inhibition at 10 µM", "setting": "[12]; read-out: % inhibition (range)", "value": 0, "unit": "%"},
      {"measurement": "inhibition at 10 µM", "setting": "[12]; read-out: inhibition (10 μM)", "value": 2, "unit": "%"},
      {"measurement": "inhibition at 10 µM", "setting": "[13]; read-out: % inhibition (range)", "value": 0, "unit": "%"},
      {"measurement": "inhibition at 10 µM", "setting": "[13]; read-out: inhibition (10 μM)", "value": 2.6, "unit": "%"},
      {"measurement": "inhibition at 10 µM", "setting": "[14]; read-out: % inhibition (range)", "value": "50 to 75", "unit": "%"},
      {"measurement": "inhibition at 10 µM", "setting": "[14]; read-out: inhibition (10 μM)", "value": 72.9, "unit": "%"},
      {"measurement": "inhibition at 10 µM", "setting": "[15]; read-out: % inhibition (range)", "value": 0, "unit": "%"},
      {"measurement": "inhibition at 10 µM", "setting": "[15]; read-out: inhibition (10 μM)", "value": 32.8, "unit": "%"},
      {"measurement": "inhibition at 10 µM", "setting": "[16]; read-out: % inhibition (range)", "value": "35 to 50", "unit": "%"},
      {"measurement": "inhibition at 10 µM", "setting": "[16]; read-out: inhibition (10 μM)", "value": 42, "unit": "%"},
      {"measurement": "inhibition at 10 µM", "setting": "[17]; read-out: % inhibition (range)", "value": 0, "unit": "%"},
      {"measurement": "inhibition at 10 µM", "setting": "[17]; read-out: inhibition (10 μM)", "value": -23, "unit": "%"},
      {"measurement": "inhibition at 10 µM", "setting": "[18]; read-out: % inhibition (range)", "value": "75 to 90", "unit": "%"},
      {"measurement": "inhibition at 10 µM", "setting": "[18]; read-out: inhibition (10 μM)", "value": "> 75", "unit": "%"},
      {"measurement": "inhibition at 10 µM", "setting": "[19]; read-out: % inhibition (range)", "value": 0, "unit": "%"},
      {"measurement": "inhibition at 10 µM", "setting": "[19]; read-out: inhibition (10 μM)", "value": 30.6, "unit": "%"},
      {"measurement": "inhibition at 10 µM", "setting": "[20]; read-out: % inhibition (range)", "value": "50 to 75", "unit": "%"},
      {"measurement": "inhibition at 10 µM", "setting": "[20]; read-out: inhibition (10 μM)", "value": 56.9, "unit": "%"},
      {"measurement": "inhibition at 10 µM", "setting": "[21]; read-out: % inhibition (range)", "value": 0, "unit": "%"},
      {"measurement": "inhibition at 10 µM", "setting": "[21]; read-out: inhibition (10 μM)", "value": 27.4, "unit": "%"},
      {"measurement": "% inhibition (range)", "setting": "[22]; 10 μM", "value": 0.0, "unit": "%"},
      {"measurement": "inhibition (10 μM)", "setting": "[22]", "value": 33.0, "unit": "%"},
      {"measurement": "inhibition at 10 µM", "setting": "[23]; read-out: % inhibition (range)", "value": "50 to 75", "unit": "%"},
      {"measurement": "inhibition at 10 µM", "setting": "[23]; read-out: inhibition (10 μM)", "value": 66.9, "unit": "%"},
      {"measurement": "% inhibition (range)", "setting": "[24]; 10 μM", "value": 0.0, "unit": "%"},
      {"measurement": "inhibition (10 μM)", "setting": "[24]", "value": "−35.7", "unit": "%"}
    ]}
  ]
}
